The subject of data set [1] is rat. The following applies: cited from earlier work.
The conditions of data set [2]: cited from earlier work; for solubility in water, in words: water (NAC: at 20° C.).
Data set [3] relates to rats intoxicated with mercury (mercury chloride). The data set is described as follows: Example 1: erdosteine per os vs NAC per os in rats intoxicated with mercury. The following applies: erdosteine 875 mg/kg or NAC 500 mg/kg per os once a day for 7 days. The class given is in vivo, Wistar rats. On the procedure:
(§1) 3. […] NAC has been mixed with bidistilled water, the resulting solution being administered in volume of 10 ml/kg.
(§2) 4. […] Erdosteine has been mixed with bidistilled water and sodium hydrogen carbonate equimolar, the resulting solution being administered in volume of 10 ml/kg.
(§3) Mortality has been recorded. […] Few animals have been collected urine eliminated spontaneously for Pb—Hg analysis. Animals have been sacrificed under general anesthesia with ether. 6 animals of each group (3 males and 3 females) have been randomly selected for macroscopic and microscopic anatomic-pathological examination.

Data set [4] shares this test system. The data set can be described thus: Example 2: erdosteine i.v. vs NAC i.v. in rats intoxicated with mercury. The class given is in vivo, Wistar rats. On the procedure:
(§4) The animals have been randomly divided in 11 lots.
(§5) 3. […] NAC has been dissolved in bidistilled water.
(§6) 4. […] Erdosteine has been solubilized in bidistilled water and sodium hydrogen carbonate equimolar, the resulting solution being administered in volume of 10 ml/kg. Preliminarily we tested the different molar ratios erdosteine/sodium hydrogen carbonate in a range between 0.5:1 and 1.5:1 and the volume to be solubilized. […] Animals Monitoring:
as §3

Data set [5] deals with rats intoxicated with lead (lead acetate). The data set can be described thus: Example 2: erdosteine i.v. vs NAC i.v. in rats intoxicated with lead. The class given is in vivo, Wistar rats. The method, then: as §4, §5, §6, §3
Data set [6] relates to rats intoxicated with paracetamol. The data set can be described thus: Example 4: erdosteine i.v. vs NAC i.v. in rats intoxicated with paracetamol. The class given is in vivo, Wistar rats.
Description: Experiment has been carried on in parallel with experiment of example 3 and results of animals not intoxicated not treated (lot1) have been used as reference.
as §5
Animals have been monitored as described in example 3.
Mortality has been recorded.

The subject of data set [7] is rats intoxicated with lead (lead acetate). The data set can be described thus: Example 1: erdosteine per os vs NAC per os in rats intoxicated with lead. In kind it is in vivo, Wistar rats. As to conditions: erdosteine 875 mg/kg or NAC 500 mg/kg per os once a day for 7 days. The method, then:
as §1, §2, §3

Where [8] appears, read: Hg intoxicated (mercury chloride 42 mg/kg per os), 30 animals/lot.
Setting [9] is: survivors after 7 days, Hg intoxicated.
[10] abbreviates: Hg intoxicated (mercury chloride 42 mg/kg per os), ERDO1 = erdosteine 350 mg/kg i.v. or NAC 114 mg/kg i.v. once a day for 7 days, 35 animals/lot.
[11] abbreviates: Hg intoxicated, ERDO1 = erdosteine 350 mg/kg i.v. or NAC 114 mg/kg i.v. once a day for 7 days.
Setting [12] is: survivors after 7 days, Hg intoxicated, ERDO1 = erdosteine 350 mg/kg i.v. or NAC 114 mg/kg i.v. once a day.
Setting [13] is: Pb intoxicated (lead acetate 4665 mg/kg per os), ERDO1 = erdosteine 350 mg/kg i.v. or NAC 114 mg/kg i.v. once a day for 7 days, 35 animals/lot.
Where [14] appears, read: Pb intoxicated, ERDO1 = erdosteine 350 mg/kg i.v. or NAC 114 mg/kg i.v. once a day for 7 days.
The mark [15] stands for this setting: survivors after 7 days, Pb intoxicated, ERDO1 = erdosteine 350 mg/kg i.v. or NAC 114 mg/kg i.v. once a day.
Where [16] appears, read: paracetamol […] per os, erdosteine 350 mg/kg i.v. or NAC 114 mg/kg i.v. once a day for 7 days, 30 animals/lot.
Setting [17] is: paracetamol intoxicated, erdosteine 350 mg/kg i.v. or NAC 114 mg/kg i.v., 7 days.
[18] abbreviates: survivors at 7 days, paracetamol intoxicated, erdosteine 350 mg/kg i.v. or NAC 114 mg/kg i.v.
[19] abbreviates: Pb intoxicated (lead acetate 4665 mg/kg per os), 30 animals/lot.
The mark [20] stands for this setting: survivors after 7 days, Pb intoxicated.

Read-outs that look alike come from different tables or passages of the source.

For Lead acetate trihydrate, the LD50 per os in data set [1] (per os, rat where given) is 4665 mg/kg.

With `[Cl][Hg][Cl]` [mercury chloride], in data set [2] (water at 20° C.), the solubility in water is listed as 7.4 g/100 ml. Besides, the LD50 per os in data set [1] (per os, rat where given) is recorded as 42 mg/kg.

Regarding `CC(=O)N[C@@H](CS)C(=O)O` [NAC, N-Acetylcysteine], in data set [3] (setting [8]), the Mortality in percent is recorded as 33.3% and the Mortality total is 10^2^. Moreover, the “Anatomical pathology: lesions (macroscopic and microscopic examination)” value in data set [3] (Hg intoxicated) was “less important lesions”. For the same molecule, the “Hg in urine mean values” in data set [3] (Hg intoxicated, GS MS Varian 4100) was 11.5 mg/L. Besides, in data set [3] (setting [9]), the Creatinine mean values is 0.56 ^3 mK/dl, the Haematocrit mean values was 41.50^3, the Haemoglobin mean values was 13.58^3 g/dl and the Leucocytes mean values is 6.72^3. Also, in data set [3] (setting [9]), the Urea mean values is 85.45 ^3 mg/dl, the “Uric acid mean value” is 2.38 ^1 mg/dl and the erythrocytes mean values is on record as 6.92^3 *10^6/mm^3. Further, in data set [4] (setting [10]), the Mortalitaty total is recorded as 30 ^3 and the Mortality in percent is given as 85.7%. Also, in data set [4] (setting [11]), the “Anatomical pathology: lesions” value is “least severe damages” and the “Hg in urine mean values” was determined as 13.9 mg/L. In addition, in data set [4] (setting [12]), the Creatinine mean values is given as 1.06 ^4 mK/dl, the Haematocrit mean values was 38.97 ^3, the Haemoglobin mean values is recorded as 14.57 ^3 g/dl and the Leucocytes mean values was 10.5 ^3. Also, in data set [4] (setting [12]), the Urea mean values is listed as 79.52 ^4 mg/dl, the “Uric acid mean value” is on record as 2.02 ^4 mg/dl and the erythrocytes mean values was 6.76 ^3 *10^6/mm^3. Also, in data set [2], the “solubility in water, in words” value is listed as “slightly soluble”. Further, in data set [5] (setting [13]), the Mortalitaty total is recorded as 28 ^3 and the Mortality in percent came to 80%. Besides, in data set [5] (setting [14]), the “Anatomical pathology: lesions” value is “did not improve lesions” and the “Pb in urine, Pb mean values” turned out to be 12.9 mg/L. In data set [5] (setting [15]), the Creatinine mean values is reported as 0.78 ^4 mK/dl, the Haematocrit mean values was 35.48 ^3, the Haemoglobin mean values is on record as 15.86 ^3 g/dl and the Leucocytes mean values was 16.36 ^3. In data set [5] (setting [15]), the Urea mean values is 80.98 ^4 mg/dl, the “Uric acid mean value” was 2.13 ^4 mg/dl and the erythrocytes mean values is 6.93 ^3 *10^6/mm^3. Further, the LD50 i.v. in data set [1] (rat, in vivo, iv) is on record as 1140 mg/kg. Also, in data set [1] (rat, in vivo), the LD50 per os was 5050 mg/kg. In data set [6] (setting [16]), the Mortality percentual was found to be 20% and the Total mortality is reported as 6/30. Besides, the “Renal aggression (urine summary), in words” value in data set [6] (paracetamol intoxicated, erdosteine 350 mg/kg i.v. or NAC 114 mg/kg i.v.) is recorded as “antagonized”. In addition, in data set [6] (setting [17]), the “Urine summary: Bil.” value amounted to 3 mg/dL, the “Urine summary: Chet” value is on record as “neg”, the “Urine summary: Density” value is 1015 and the “Urine summary: Erythrocyte” value came to 25 µL⁻¹. For the same molecule, in data set [6] (setting [17]), the “Urine summary: Glucose” value is on record as “neg”, the “Urine summary: Leuc” value turned out to be 25 µL⁻¹, the “Urine summary: Prot.” value is 75 mg/dL and the “Urine summary: UBG” value stood at 1 mg/dL. Besides, the “Urine summary: pH” value in data set [6] (setting [17]) came out at 6.8. Further, in data set [6] (setting [18]), the ALT is 206.6^1, the AST is listed as 42.6^2, the HCT is 41.7^1 and the PLT was 550.8^1. For the same molecule, in data set [6] (setting [18]), the RBC is 7.20^1, the Urea was 74.76^1 and the Uric acid is recorded as 2.574^1. Besides, in data set [7] (setting [19]), the Mortality in percent is on record as 30% and the Mortality total turned out to be 9. Further, in data set [7] (Pb intoxicated), the “Anatomical pathology: lesions (macroscopic and microscopic examination)” value is on record as “did not improve lesions”. Moreover, in data set [7] (Pb intoxicated, GS MS Varian 4100), the “Pb in urine, Pb mean values” is 13.2 mg/L. For the same molecule, in data set [7] (setting [20]), the Creatinine mean values is on record as 0.66 ^3 mK/dl, the Haematocrit mean values is 41.42^3, the Haemoglobin mean values was 13.58^3 g/dl and the Leucocytes mean values is recorded as 6.82^3. Further, in data set [7] (setting [20]), the Urea mean values was 104.15 ^3 mg/dl, the “Uric acid mean value” is 2.36 ^1 mg/dl and the erythrocytes mean values is 6.55^3 *10^6/mm^3.

For `OCC(S)CS` (centres unmarked) [Dimercaprol, 2,3,Dimercapto1-propanol], the “solubility in water, in words” value in data set [2] was “hardly soluble”. Further, in data set [1] (rat, i.v.), the LD50 i.v. is 105 mg/kg.

Values taken from patent US9427426B2 (priority 2008, dated 2016).
